Data taken from the NIST ThermoML archive (doi:10.1021/je200856f).

Experiment: mn = molality of the nth substance listed, in mol/kg
Conditions: 101 kPa, Liquid; for mass density: Vibrating tube method; for electrical conductivity: Wheatstone bridge equipment

C[N+](C)(C)CCO.[Cl-] [choline chloride] + O
Conditions | electrical conductivity [S/m] | mass density [kg/m3] | viscosity [mPa·s]
278.15 K, m1 = 0.0293 | – | – | 1.527
278.15 K, m1 = 0.054 | – | 1000.97 | –
278.15 K, m1 = 0.058 | – | – | 1.551
278.15 K, m1 = 0.1087 | – | 1001.95 | –
278.15 K, m1 = 0.1113 | – | – | 1.515
278.15 K, m1 = 0.2495 | – | – | 1.577
278.15 K, m1 = 0.2554 | – | 1004.5 | –
278.15 K, m1 = 0.3505 | – | – | 1.601
278.15 K, m1 = 0.4956 | – | – | 1.631
278.15 K, m1 = 0.5004 | – | 1008.71 | –
278.15 K, m1 = 0.6473 | – | – | 1.695
278.15 K, m1 = 0.6512 | – | 1011.01 | –
278.15 K, m1 = 0.7484 | – | 1012.68 | –
278.15 K, m1 = 0.7512 | – | – | 1.741
278.15 K, m1 = 0.903 | – | – | 1.762
278.15 K, m1 = 1.005 | – | – | 1.791
278.15 K, m1 = 1.203 | – | 1019.28 | 1.862
278.15 K, m1 = 1.504 | – | 1022.75 | –
278.15 K, m1 = 1.506 | – | – | 1.936
278.15 K, m1 = 1.99 | – | – | 2.077
278.15 K, m1 = 1.992 | – | 1028.85 | –
288.15 K, m1 = 0.0293 | – | – | 1.151
288.15 K, m1 = 0.054 | – | 1000.03 | –
288.15 K, m1 = 0.058 | – | – | 1.17
288.15 K, m1 = 0.1087 | – | 1000.95 | –
288.15 K, m1 = 0.1113 | – | – | 1.164
288.15 K, m1 = 0.2495 | – | – | 1.192
288.15 K, m1 = 0.2554 | – | 1003.33 | –
288.15 K, m1 = 0.3505 | – | – | 1.211
288.15 K, m1 = 0.4956 | – | – | 1.237
288.15 K, m1 = 0.5004 | – | 1007.27 | –
288.15 K, m1 = 0.6473 | – | – | 1.287
288.15 K, m1 = 0.6512 | – | 1009.43 | –
288.15 K, m1 = 0.7484 | – | 1011 | –
288.15 K, m1 = 0.7512 | – | – | 1.323
288.15 K, m1 = 0.903 | – | – | 1.342
288.15 K, m1 = 1.005 | – | – | 1.364
288.15 K, m1 = 1.203 | – | 1017.23 | 1.417
288.15 K, m1 = 1.504 | – | 1020.5 | –
288.15 K, m1 = 1.506 | – | – | 1.476
288.15 K, m1 = 1.99 | – | – | 1.587
288.15 K, m1 = 1.992 | – | 1026.31 | –
298.15 K, m1 = 0.0272 | 0.279 | – | –
298.15 K, m1 = 0.0293 | – | – | 0.875
298.15 K, m1 = 0.05 | 0.492 | – | –
298.15 K, m1 = 0.054 | – | 997.931 | –
298.15 K, m1 = 0.058 | – | – | 0.888
298.15 K, m1 = 0.1 | 0.919 | – | –
298.15 K, m1 = 0.1087 | – | 998.81 | –
298.15 K, m1 = 0.1113 | – | – | 0.903
298.15 K, m1 = 0.2495 | – | – | 0.908
298.15 K, m1 = 0.25 | 2.03 | – | –
298.15 K, m1 = 0.2554 | – | 1001.09 | –
298.15 K, m1 = 0.35 | 2.67 | – | –
298.15 K, m1 = 0.3505 | – | – | 0.928
298.15 K, m1 = 0.4956 | – | – | 0.95
298.15 K, m1 = 0.5 | 3.55 | – | –
298.15 K, m1 = 0.5004 | – | 1004.84 | –
298.15 K, m1 = 0.6473 | – | – | 0.984
298.15 K, m1 = 0.65 | 4.37 | – | –
298.15 K, m1 = 0.6512 | – | 1006.92 | –
298.15 K, m1 = 0.7484 | – | 1008.42 | –
298.15 K, m1 = 0.75 | 4.79 | – | –
298.15 K, m1 = 0.7512 | – | – | 1.009
298.15 K, m1 = 0.9 | 5.44 | – | –
298.15 K, m1 = 0.903 | – | – | 1.023
298.15 K, m1 = 1.005 | – | – | 1.043
298.15 K, m1 = 1.203 | – | 1014.4 | 1.082
298.15 K, m1 = 1.205 | 6.54 | – | –
298.15 K, m1 = 1.504 | – | 1017.56 | –
298.15 K, m1 = 1.505 | 7.43 | – | –
298.15 K, m1 = 1.506 | – | – | 1.127
298.15 K, m1 = 1.99 | – | – | 1.234
298.15 K, m1 = 1.992 | – | 1023.16 | –
298.15 K, m1 = 1.994 | 8.53 | – | –
308.15 K, m1 = 0.0293 | – | – | 0.715
308.15 K, m1 = 0.054 | – | 994.893 | –
308.15 K, m1 = 0.058 | – | – | 0.724
308.15 K, m1 = 0.1087 | – | 995.745 | –
308.15 K, m1 = 0.1113 | – | – | 0.732
308.15 K, m1 = 0.2495 | – | – | 0.746
308.15 K, m1 = 0.2554 | – | 997.961 | –
308.15 K, m1 = 0.3505 | – | – | 0.757
308.15 K, m1 = 0.4956 | – | – | 0.774
308.15 K, m1 = 0.5004 | – | 1001.61 | –
308.15 K, m1 = 0.6473 | – | – | 0.811
308.15 K, m1 = 0.6512 | – | 1003.63 | –
308.15 K, m1 = 0.7484 | – | 1005.09 | –
308.15 K, m1 = 0.7512 | – | – | 0.826
308.15 K, m1 = 0.903 | – | – | 0.835
308.15 K, m1 = 1.005 | – | – | 0.854
308.15 K, m1 = 1.203 | – | 1010.92 | 0.884
308.15 K, m1 = 1.504 | – | 1014 | –
308.15 K, m1 = 1.506 | – | – | 0.921
308.15 K, m1 = 1.99 | – | – | 1.007
308.15 K, m1 = 1.992 | – | 1019.47 | –
318.15 K, m1 = 0.0293 | – | – | 0.633
318.15 K, m1 = 0.054 | – | 991.063 | –
318.15 K, m1 = 0.058 | – | – | 0.61
318.15 K, m1 = 0.1087 | – | 991.902 | –
318.15 K, m1 = 0.1113 | – | – | 0.623
318.15 K, m1 = 0.2495 | – | – | 0.638
318.15 K, m1 = 0.2554 | – | 994.085 | –
318.15 K, m1 = 0.3505 | – | – | 0.646
318.15 K, m1 = 0.4956 | – | – | 0.656
318.15 K, m1 = 0.5004 | – | 997.683 | –
318.15 K, m1 = 0.6473 | – | – | 0.694
318.15 K, m1 = 0.6512 | – | 999.672 | –
318.15 K, m1 = 0.7484 | – | 1001.11 | –
318.15 K, m1 = 0.7512 | – | – | 0.69
318.15 K, m1 = 0.903 | – | – | 0.702
318.15 K, m1 = 1.005 | – | – | 0.721
318.15 K, m1 = 1.203 | – | 1006.86 | 0.747
318.15 K, m1 = 1.504 | – | 1009.9 | –
318.15 K, m1 = 1.506 | – | – | 0.776
318.15 K, m1 = 1.99 | – | – | 0.843
318.15 K, m1 = 1.992 | – | 1015.31 | –

O [water] + C[N+](C)(C)CCO.[Cl-]
Conditions | mass density [kg/m3]
278.15 K, m2 = 0 | 999.961
